In general, IC50 refers to the point on the concentration scale where inhibition reaches its midpoint.

For the assay, the target named is Recombinant human c-KIT kinase (Homo sapiens (Human), UniProt P10721). The assay can be described thus: c-KIT kinase chemiluminescence assay (ADP-Glo). In kind it is biochemical. Conditions: ATP 50 μM. The method, then:
The c-KIT Kinase Enzyme System (V4498) and ADP-Glo™ Kinase Assay kit (V6930) were purchased from Promega (Madison, WI). DMSO (D2650) was purchased from Sigma-Aldrich (Burlington, MA).
Kinase Reaction: The kinase assay was based on the recommended protocol by c-KIT Kinase Enzyme System from Promega. Recombinant human c-KIT kinase in 3 μL of assay buffer (40 mM Tris pH 7.5, 20 mM MgCl2, 0.1 mg/mL BSA and 50 μM DTT) was added to the test or high control wells and 3 μL of assay buffer was added to the low control wells. The microplate was centrifuged at 800 rotations per minute (rpm) for 60 s and incubated at room temperature (RT) for 30 min. Next, 2 μL of buffered ATP and polyEY substrate solution was added to all wells. The microplate was centrifuged at 800 rpm for 60 s and incubated at RT for 2 h.
ADP detection with ADP-Glo™ Kinase Assay: After the kinase reaction incubation, 5 μL of ADP-Glo™ reagent was added to all wells. The microplate was centrifuged at 800 rpm for 60 s and incubated at RT for 40 min. Ten microliter (10 μL) of Kinase Detection Reagent (Luciferin-Luciferase system) was then added to all wells. The microplate was centrifuged at 800 rpm for 60 s and incubated at RT for 60 min. Kinase activity was measured as increase in luminescence at RT in an Envision plate reader equipped with 560 nm filters and operating in endpoint mode. Data Analysis: Endpoint chemiluminescence from high and low control wells were used to calculate normalized c-KIT activity at various concentrations of test compounds. The normalized activities were fitted to inhibitor-versus-normalized response fit in GraphPad Prism 7 to determine half-maximal inhibitory concentration (IC50) and hill coefficient values (H).
Where I is the inhibitor concentration and H is the Hill coefficient.
In general terms: In ADP-Glo the light output rises with the ADP produced.

Recombinant human c-KIT kinase, sequence (P10721 26-976): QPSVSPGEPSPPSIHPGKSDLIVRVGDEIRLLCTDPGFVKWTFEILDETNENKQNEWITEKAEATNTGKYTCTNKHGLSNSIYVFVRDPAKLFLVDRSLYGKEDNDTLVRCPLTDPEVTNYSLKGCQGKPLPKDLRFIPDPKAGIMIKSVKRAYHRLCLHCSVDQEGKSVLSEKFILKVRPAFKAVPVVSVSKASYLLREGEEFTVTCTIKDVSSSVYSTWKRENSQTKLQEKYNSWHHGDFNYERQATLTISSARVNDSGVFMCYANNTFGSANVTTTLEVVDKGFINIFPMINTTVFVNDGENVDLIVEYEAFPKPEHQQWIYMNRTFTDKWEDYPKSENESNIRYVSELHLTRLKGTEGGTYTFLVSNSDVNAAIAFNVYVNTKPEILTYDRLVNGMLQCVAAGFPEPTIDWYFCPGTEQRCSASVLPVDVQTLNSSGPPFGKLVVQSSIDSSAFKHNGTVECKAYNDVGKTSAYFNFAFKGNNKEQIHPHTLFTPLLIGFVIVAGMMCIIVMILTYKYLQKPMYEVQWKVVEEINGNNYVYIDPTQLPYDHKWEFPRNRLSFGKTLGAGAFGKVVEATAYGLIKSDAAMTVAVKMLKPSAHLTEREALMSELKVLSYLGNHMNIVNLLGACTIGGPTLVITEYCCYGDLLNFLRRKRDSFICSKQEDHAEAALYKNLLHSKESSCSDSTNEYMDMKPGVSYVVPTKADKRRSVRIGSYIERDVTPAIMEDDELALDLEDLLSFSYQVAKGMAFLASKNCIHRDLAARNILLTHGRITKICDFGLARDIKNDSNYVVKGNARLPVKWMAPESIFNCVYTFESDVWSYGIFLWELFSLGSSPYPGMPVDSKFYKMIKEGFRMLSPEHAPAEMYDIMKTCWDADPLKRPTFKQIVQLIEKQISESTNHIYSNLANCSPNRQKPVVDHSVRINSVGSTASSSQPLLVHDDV

Turning to `Cc1ccc(-c2noc([C@H]3C[C@@H]3F)n2)cc1NC(=O)c1cnc2cnccn12` [Example 1], the IC50 fell in the range of 100 to 1000 nM.
As for `Cc1ccc(-c2noc([C@H]3C[C@@H]3F)n2)cc1NC(=O)c1ccnc2cnccc12` [Example 8], the IC50 was > 1000 nM.
Consider `Cc1ccc(-c2noc([C@H]3C[C@@H]3F)n2)cc1NC(=O)c1cnn2c1CCCC2` [Example 9], for which the IC50 is > 1000 nM.
`Cc1ccc(-c2noc([C@H]3C[C@@H]3F)n2)cc1NC(=O)c1cnc2n1CCCC2` [Example 10]: the IC50 lay within 100 to 1000 nM.
Under `Cc1ccc(-c2noc([C@H]3C[C@@H]3F)n2)cc1NC(=O)c1cnn(C)c1C` [Example 11] stands > 1000 nM.
Under `Cc1ccc(-c2noc([C@H]3C[C@@H]3F)n2)cc1NC(=O)c1ccnc2ncccc12` [Example 12] stands > 1000 nM; under `Cc1ccc(-c2noc([C@H]3C[C@@H]3F)n2)cc1NC(=O)c1cncn1-c1ccccc1` [Example 17], > 1000 nM.
Consider `Cc1ccc(-c2noc([C@H]3C[C@@H]3F)n2)cc1NC(=O)c1cnn2ncccc12` [Example 18], for which the IC50 is > 1000 nM.
For `Cc1ccc(-c2noc([C@H]3C[C@@H]3F)n2)cc1NC(=O)c1csc2cncnc12` [Example 19] the value was > 1000 nM.
Under `Cc1ccc(-c2noc([C@H]3C[C@@H]3F)n2)cc1NC(=O)c1nnc2ccccn12` [Example 20] stands > 1000 nM; under `Cc1ccc(-c2noc([C@H]3C[C@@H]3F)n2)cc1NC(=O)c1nnn2ccccc12` [Example 21], > 1000 nM.
Under `Cc1ccc(-c2noc([C@H]3C[C@@H]3F)n2)cc1NC(=O)c1cn(-c2ccccc2)nn1` [Example 22] stands > 1000 nM; under `Cc1ccc(-c2noc([C@H]3C[C@@H]3F)n2)cc1NC(=O)c1cnc(-c2ccccc2F)s1` [Example 24], 100 to 1000 nM.
Take `Cc1ccc(-c2noc([C@H]3C[C@@H]3F)n2)cc1NC(=O)c1cnc2ncccn12` [Example 25]: the IC50 is > 1000 nM.
As to `Cc1ccc(-c2noc([C@H]3C[C@@H]3F)n2)cc1NC(=O)c1ccnc2ccnn12` [Example 26], the half-inhibitory concentration (IC50) is > 1000 nM.
Under `Cc1ccc(-c2noc([C@H]3C[C@@H]3F)n2)cc1NC(=O)c1cnc2ncccc2c1` [Example 28] stands > 1000 nM; under `Cc1ccc(-c2noc([C@H]3C[C@@H]3F)n2)cc1NC(=O)c1cnc2sccc2c1` [Example 29], > 1000 nM.
As for `Cc1ccc(-c2noc([C@H]3C[C@@H]3F)n2)cc1NC(=O)c1cnc2[nH]ncc2c1` [Example 31], the IC50 is > 1000 nM.
For the compound `Cc1ccc(-c2noc([C@H]3C[C@@H]3F)n2)cc1NC(=O)c1cnc2c(cnn2C(=O)C(C)C)c1` [Example 32], the IC50 is > 1000 nM.
For `Cc1ccc(-c2noc([C@H]3C[C@@H]3F)n2)cc1NC(=O)c1cnc2[nH]ccc2c1` [Example 33] the value was > 1000 nM; for `Cc1ccc(-c2noc([C@H]3C[C@@H]3F)n2)cc1NC(=O)c1cnc2cccn2c1` [Example 45], > 1000 nM.
Turning to `Cc1ccc(-c2noc([C@H]3C[C@@H]3F)n2)cc1NC(=O)c1cnc2nccn2c1` [Example 46], the IC50 was > 1000 nM.
Under `Cc1ccc(-c2noc([C@H]3C[C@@H]3F)n2)cc1NC(=O)c1cnc2ccnn2c1` [Example 47] stands > 1000 nM; under `Cc1ccc(-c2noc([C@H]3C[C@@H]3F)n2)cc1NC(=O)c1cnc2cn[nH]c2c1` [Example 48], > 1000 nM.
Under `Cc1ccc(-c2noc([C@H]3C[C@@H]3F)n2)cc1NC(=O)c1cnc2cnn(C(=O)C(C)C)c2c1` [Example 49] stands > 1000 nM; under `Cc1ccc(-c2noc([C@H]3C[C@@H]3F)n2)cc1NC(=O)c1cnc2ncsc2c1` [Example 50], > 1000 nM.
Regarding `Cc1ccc(-c2noc([C@H]3C[C@@H]3F)n2)cc1NC(=O)c1cnn(-c2ccc(Cl)cc2)c1` [Example 51], the half-maximal inhibitory concentration (IC50) is > 1000 nM.
For `Cc1ccc(-c2noc([C@H]3C[C@@H]3F)n2)cc1NC(=O)c1cn(-c2ccccc2)nc1C` [Example 53], the IC50 was > 1000 nM.
Under `Cc1ccc(-c2noc([C@H]3C[C@@H]3F)n2)cc1NC(=O)c1cnc2cnccc2c1` [Example 63] stands > 1000 nM.
With `Cc1ccc(-c2noc([C@H]3C[C@@H]3F)n2)cc1NC(=O)c1cnc2ccncc2c1` [Example 64], the IC50 was > 1000 nM.
Regarding `Cc1ccc(-c2noc([C@H]3C[C@@H]3F)n2)cc1NC(=O)c1cnc2ccccc2n1` [Example 65], the IC50 was > 1000 nM.
Under `Cc1ccc(-c2noc([C@H]3C[C@@H]3F)n2)cc1NC(=O)c1cnc2[nH]cnc2c1` [Example 66] stands > 1000 nM; under `Cc1ccc(-c2noc([C@H]3C[C@@H]3F)n2)cc1NC(=O)c1cnc2c(c1)ncn2C(=O)C(C)C` [Example 67], > 1000 nM; under `Cc1ccc(-c2noc([C@H]3C[C@@H]3F)n2)cc1NC(=O)c1cn2ccsc2n1` [Example 68], > 1000 nM.
As for `Cc1ccc(-c2noc([C@H]3C[C@@H]3F)n2)cc1NC(=O)c1cnn(-c2ccccn2)c1` [Example 75], the IC50 was in the range of 100 to 1000 nM.
Under `Cc1ccc(-c2noc([C@H]3C[C@@H]3F)n2)cc1NC(=O)c1cnn(-c2ccccc2Cl)c1` [Example 76] stands > 1000 nM.
`Cc1ccc(-c2noc([C@H]3C[C@@H]3F)n2)cc1NC(=O)c1cnc(-c2ccccc2)[nH]1` [Example 77]: the IC50 is > 1000 nM.
With `COc1ccccc1-c1ncc(C(=O)Nc2cc(-c3noc([C@H]4C[C@@H]4F)n3)ccc2C)[nH]1` [Example 78], the IC50 was > 1000 nM.
For `Cc1ccc(-c2noc([C@H]3C[C@@H]3F)n2)cc1NC(=O)c1cn[nH]c1-c1ccccc1` [Example 79] the value was 100 to 1000 nM; for `COc1cccc(-n2cc(C(=O)Nc3cc(-c4noc([C@H]5C[C@@H]5F)n4)ccc3C)cn2)c1` [Example 80], 100 to 1000 nM; for `Cc1ccc(-c2noc([C@H]3C[C@@H]3F)n2)cc1NC(=O)c1cnn(-c2cccc(Cl)c2)c1` [Example 81], > 1000 nM.
Under `Cc1ccc(-c2noc([C@H]3C[C@@H]3F)n2)cc1NC(=O)c1cnn(-c2cccc(Br)c2)c1` [Example 82] stands > 1000 nM; under `Cc1ccc(-c2noc([C@H]3C[C@@H]3F)n2)cc1NC(=O)c1cnn(-c2ccccc2)n1` [Example 83], > 1000 nM; under `Cc1ccc(-c2noc([C@H]3C[C@@H]3F)n2)cc1NC(=O)c1cnc(-c2ccccc2)s1` [Example 84], 100 to 1000 nM.
Regarding `Cc1ccc(-c2noc([C@H]3C[C@@H]3F)n2)cc1NC(=O)n1c(=O)[nH]c2ccccc21` [Example 86], the IC50 was > 1000 nM.
Under `Cc1ccc(-c2noc([C@H]3C[C@@H]3F)n2)cc1NC(=O)c1cnn(-c2cccc(NC(=O)OC(C)(C)C)c2)c1` [Example 87] stands > 1000 nM; under `Cc1ccc(-c2noc([C@H]3C[C@@H]3F)n2)cc1NC(=O)c1cnn2c1ccc1ccccc12` [Example 88], 100 to 1000 nM.
Under `Cc1ccc(-c2noc([C@H]3C[C@@H]3F)n2)cc1NC(=O)c1cnn2ccc(C(=O)N3CCCCC3)cc12` [Example 89] stands > 1000 nM.
Regarding `Cc1ccc(-c2noc([C@H]3C[C@@H]3F)n2)cc1NC(=O)c1cnn2ccc(C(=O)NC3CCCCC3)cc12` [Example 91], the half-inhibitory concentration (IC50) was 100 to 1000 nM.
For `Cc1ccc(-c2noc([C@H]3C[C@@H]3F)n2)cc1NC(=O)c1cnc2n1CCOc1ccccc1-2` [Example 101] the value was 100 to 1000 nM.
For `C#Cc1ccc2c(C(=O)Nc3cc(-c4noc([C@H]5C[C@@H]5F)n4)ccc3C)cnn2c1` [Example 106] the value was < 100 nM; for `Cc1ccc(-c2noc([C@H]3C[C@@H]3F)n2)cc1NC(=O)c1cnn2cc(-c3cn(C(F)F)nn3)ccc12` [Example 107], < 100 nM; for `Cc1ccc(-c2noc([C@H]3C[C@@H]3F)n2)cc1NC(=O)c1cnn2cc(-c3cnn(C(F)F)c3)ccc12` [Example 133], < 100 nM.
For the compound `Cc1ccc(-c2noc([C@H]3C[C@@H]3F)n2)cc1NC(=O)c1cnn2cc(-c3ccn(C(F)F)n3)ccc12` [Example 134], the IC50 was < 100 nM.
Regarding `Cc1ccc(-c2noc([C@H]3C[C@@H]3F)n2)cc1NC(=O)c1cnn2cc(-c3cnn(C4COC4)c3)ccc12` [Example 137], the IC50 is < 100 nM.
Under `Cc1ccc(-c2noc([C@H]3C[C@@H]3F)n2)cc1NC(=O)c1cnn2cc(-c3cnn(CCO)c3)ccc12` [Example 139] stands < 100 nM; under `Cc1ccc(-c2noc([C@H]3C[C@@H]3F)n2)cc1NC(=O)c1cnn2cc(-c3cnn(C(C)(C)CO)c3)ccc12` [Example 141], < 100 nM.
Consider `Cc1ccc(-c2noc([C@H]3C[C@@H]3F)n2)cc1NC(=O)c1cnn2cc(-c3cnn(CC(C)(C)O)c3)ccc12` [Example 143], for which the IC50 was < 100 nM.
Under `Cc1ccc(-c2noc([C@H]3C[C@@H]3F)n2)cc1NC(=O)c1cnn2cc(Cl)c(N3CC4(COC4)C3)cc12` [Example 229] stands 100 to 1000 nM; under `Cc1ccc(-c2noc([C@H]3C[C@@H](OC(F)F)C3)n2)cc1NC(=O)c1cnn2ccc(N3CC4(COC4)C3)cc12` [Example 242], < 100 nM.

The values above are taken from US20250059174A1, “Pharmaceutical Compounds and Compositions as C-Kit Kinase Inhibitors” (Enanta Pharmaceuticals, Inc., priority 2023, published 2025).
